Columns and labels:
Type in all cases: cell-based
human A2B receptor = biological target: T1, human A2B receptor (Homo sapiens, UniProt P29275); experiment: Functional A2B receptor activity, recombinant HEK293 cells, cAMP (HTRF), agonist NECA; conditions: read-out: Functional A2B receptor activity, HEK293, cAMP, IC50
T1 construct: expressed in transfected cells; host or cells: HEK293
T1 sequence (P29275 1-332): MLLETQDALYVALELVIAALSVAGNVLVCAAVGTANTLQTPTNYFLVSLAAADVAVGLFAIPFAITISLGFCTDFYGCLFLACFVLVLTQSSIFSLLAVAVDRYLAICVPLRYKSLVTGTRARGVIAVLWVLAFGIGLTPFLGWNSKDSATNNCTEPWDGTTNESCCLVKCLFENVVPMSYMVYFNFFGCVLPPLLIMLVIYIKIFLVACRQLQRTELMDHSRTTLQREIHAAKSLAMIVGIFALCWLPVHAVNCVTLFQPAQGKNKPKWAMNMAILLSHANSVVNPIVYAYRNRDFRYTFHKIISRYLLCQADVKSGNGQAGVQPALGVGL
Outline: (§1)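 Cellular cAMP measured by HTRF after 30 min incubation of cells with forskolin, test compounds and agonist. Data normalized to inhibitor control and DMSO neutral control, then curve-fitted.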

human A1 receptor = biological target: T2, human A1 receptor (Homo sapiens, UniProt P30542); experiment: Functional A1 receptor activity, recombinant CHO cells, cAMP (HTRF), forskolin, agonist CPA; conditions: recombinant CHO cells, forskolin, agonist CPA; read-out: Functional A1 receptor activity, CHO, cAMP, IC50
T2 construct: expressed in transfected cells; host or cells: CHO
T2 sequence (P30542 1-326): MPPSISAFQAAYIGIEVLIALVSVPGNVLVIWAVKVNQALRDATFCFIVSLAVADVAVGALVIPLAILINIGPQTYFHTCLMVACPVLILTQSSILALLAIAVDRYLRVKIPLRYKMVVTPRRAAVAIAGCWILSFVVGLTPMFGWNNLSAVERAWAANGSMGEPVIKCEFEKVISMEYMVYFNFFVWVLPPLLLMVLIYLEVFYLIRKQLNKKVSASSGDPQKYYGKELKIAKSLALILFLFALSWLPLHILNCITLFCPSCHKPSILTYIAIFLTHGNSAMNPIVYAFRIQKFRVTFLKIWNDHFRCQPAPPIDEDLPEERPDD
Outline: (§2)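 Recombinant CHO cells expressing A1 or A3 receptor (Gi-coupled) were stimulated with forskolin together with test compound and agonist (CPA for A1, IB-MECA for A3), incubated 30 min, then cellular cAMP was read by HTRF. Data were normalized to inhibitor control and DMSO neutral control, then curve-fitted.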

human A3 receptor = biological target: T3, human A3 receptor (Homo sapiens, UniProt P0DMS8); experiment: Functional A3 receptor activity, recombinant CHO cells, cAMP (HTRF), forskolin, agonist IB-MECA; conditions: recombinant CHO cells, forskolin, agonist IB-MECA; read-out: Functional A3 receptor activity, CHO, cAMP, IC50
T3 construct: expressed in transfected cells; host or cells: CHO
T3 sequence (P0DMS8 1-318): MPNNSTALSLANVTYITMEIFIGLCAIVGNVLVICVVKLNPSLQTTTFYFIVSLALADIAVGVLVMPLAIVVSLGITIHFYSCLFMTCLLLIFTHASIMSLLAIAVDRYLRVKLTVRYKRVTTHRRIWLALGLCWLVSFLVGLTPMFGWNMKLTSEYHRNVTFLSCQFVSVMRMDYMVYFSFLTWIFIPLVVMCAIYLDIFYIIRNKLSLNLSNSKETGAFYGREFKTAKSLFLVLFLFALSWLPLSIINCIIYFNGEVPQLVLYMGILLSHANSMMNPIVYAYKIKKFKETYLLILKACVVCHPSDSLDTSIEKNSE
Outline: as §2

mouse Pan T cells [1] = experiment: mTcell assay, cAMP, agonist NECA
Text: (§3) Adenosine (Ado) in tumor microenvironment can inhibit T cell activity by signaling through A2A receptors and suppress cytokine secretion by T cells. […] Potential A2A antagonists or A2A/A2B dual antagonists can rescue T cells from this inhibition. Herein, we describe the in vitro system we established using Pan T cells from mouse spleens to screen potential A2A antagonists or A2A/A2B dual antagonists for their activity. The method described involves the use of CD3/CD28 pre-coated beads to stimulate Pan T cells purified from mouse splenocytes, combined with the addition of A2A agonist along with potential A2A or A2A/A2B dual antagonists to evaluate potentiation of T cell cytokine production.
Pan T-cells are isolated from black 6 mice by manual dissociation and purified using a Miltenyi Pan T-cell isolation kit. The isolated T-cells are activated in 96 well plates for 48 hours using anti-CD3/CD28 beads in T-cell proliferation media.
After 48 hours, the T-cells are pooled, counted and suspended in serum free media containing 0.1% BSA. The cells are plated at 50,000 cells per well in 10 ul of media and incubated for 2 hours at 37° C. Test compounds are dispensed into the wells at a 10-point dose response, starting at a concentration of 10 uM. […] The plates are incubated for 30 minutes at 37° C. and assayed for cAMP levels using the Cisbio cAMP Dynamic2 reagent kit by adding 10 ul of the kit reagents to each well. The plates are incubated for 1 hour at room temperature and the HTRF signal is read on an Envision plate reader. The raw data is analyzed in Genedata Screener and the resulting data is loaded into the database.

human A2A receptor [2] = biological target: T4, human A2A receptor (Homo sapiens, UniProt P29274); experiment: Human T cells, endogenous A2A receptor, cAMP, agonist NECA; conditions: read-out: hTcell data, cAMP, IC50
T4 sequence (P29274 whole entry): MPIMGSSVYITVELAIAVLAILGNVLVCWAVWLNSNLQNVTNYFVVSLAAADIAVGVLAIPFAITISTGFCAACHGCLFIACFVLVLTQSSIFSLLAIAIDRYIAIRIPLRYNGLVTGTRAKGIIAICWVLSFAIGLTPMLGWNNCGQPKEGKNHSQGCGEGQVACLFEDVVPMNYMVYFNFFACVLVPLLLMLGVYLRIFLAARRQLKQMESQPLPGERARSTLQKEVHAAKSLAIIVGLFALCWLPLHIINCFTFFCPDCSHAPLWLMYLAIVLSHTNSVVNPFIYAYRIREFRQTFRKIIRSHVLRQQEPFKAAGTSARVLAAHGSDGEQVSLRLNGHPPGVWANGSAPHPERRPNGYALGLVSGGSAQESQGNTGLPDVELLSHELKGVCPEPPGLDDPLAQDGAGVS
Outline: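 Pan T cells isolated from fresh human blood PBMC, endogenously expressing Gs-coupled A2A, treated with compounds. Cellular cAMP measured by HTRF after 1 h; data normalized to inhibitor control and DMSO neutral control, then curve-fitted.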

human T cells = experiment: hTcell data, IL-2 (human T cells, IL-2 readout; method not given); conditions: compounds of the present invention
human A2A receptor [3] = biological target: T4, human A2A receptor; experiment: Functional A2A receptor activity, recombinant HEK293 cells, cAMP (HTRF), agonist NECA; set-up: expressed in transfected cells; host or cells: HEK293; conditions: read-out: Functional A2A receptor activity, HEK293, cAMP, IC50
Outline: as §1

mouse Pan T cells [4] = experiment: mTcell assay, IL-2, rescue of cytokine secretion, agonist NECA; conditions: 24 h
Text: as §3
Briefly, mouse Pan T cells are purified from spleens of BALB/c mice using Pan T cell isolation kit Mouse II (MACS Miltenyi biotech Cat # Order no. 130-095-130) according to manufacturer's protocol. The purified T cells are seeded in Nunc™ 96-Well Polystyrene Round Bottom Microwell Plates in RPMI medium with 10% heat inactivated fetal bovine serum. The cells are rested at 37° C. for 1 h before activating with CD3/CD28 pre-coated beads (Dynabeads™ Mouse T-Activator CD3/CD28; Cat #11456D). After 30 min the cells are treated with varying doses of test antagonist(s). […] After 24 h incubation IL-2 levels in the supernatants are measured by ELISAs according to manufacturer's protocol (R&D systems Cat #DY402 (IL-2)). Once the concentrations are calculated, the difference of cytokine concentration of DMSO control and agonist alone control is calculated and the percentage of rescue by each concentration of antagonist is calculated by using Microsoft Excel. These percentages of cytokine rescue in a dose dependent manner of antagonist is plotted in GraphPad Prism software and IC50 is calculated.

| Compound | IC50 (human A2B receptor) | IC50 (human A1 receptor) | IC50 (human A3 receptor) | IC50 (mouse Pan T cells [1]; Mus musculus, T-cell) | IC50 (human A2A receptor [2]) | IC50 (human T cells; T-cell) | IC50 (human A2A receptor [3]) | IC50 (mouse Pan T cells [4]; Mus musculus, T-cell) | IC50 (mouse Pan T cells [4]; mouse Pan T cells, CD3/CD28 activated, NECA 1 μM, IL-2 rescue) | IC50 (human T cells) | IC50 (mouse Pan T cells [1]; mouse Pan T cells, agonist NECA 1 uM) |
| --- | --- | --- | --- | --- | --- | --- | --- | --- | --- | --- | --- |
| COc1nc(F)c(N2CCOCC2)c2sc(NC(=O)c3ccc(-c4nnn[nH]4)cc3)nc12 [Compound 6, N-(6-Fluoro-4-methoxy-7-morpholin-4-yl-thiazolo[4,5-c]pyridin-2-yl)-4-(1H-tetrazol-5-yl)-benzamide] | < 10 nM | > 1000 nM | < 1000 nM | < 100 nM | < 100 nM | < 10 nM | < 10 nM | – | – | – | – |
| COc1nc(F)c(N2CCOCC2)c2sc(NC(=O)N3CC[C@@]4(CCCOC4)C3)nc12 [Compound 11, (5S)-N-[6-fluoro-4-methoxy-7-(morpholin-4-yl)-[1,3]thiazolo[4,5-c]pyridin-2-yl]-7-oxa-2-azaspiro[4.5]decane-2-carboxamide] | < 10 nM | > 1000 nM | > 1000 nM | – | < 10 nM | < 10 nM | < 10 nM | < 100 nM | – | – | – |
| COc1nc(F)c(N2CCOCC2)c2sc(NC(=O)N3CC[C@]4(CCOC4)C3)nc12 [Compound 19, (5S)-N-[6-fluoro-4-methoxy-7-(morpholin-4-yl)-[1,3]thiazolo[4,5-c]pyridin-2-yl]-2-oxa-7-azaspiro[4.4]nonane-7-carboxamide] | < 100 nM | > 1000 nM | > 1000 nM | < 100 nM | < 10 nM | < 100 nM | < 10 nM | < 100 nM | – | – | – |
| COc1nc(F)c(C2CCOCC2)c2sc(NC(=O)N3CC[C@]4(CCOC4)C3)nc12 [Compound 38, (5S)-N-[6-fluoro-4-methoxy-7-(oxan-4-yl)-[1,3]thiazolo[4,5-c]pyridin-2-yl]-2-oxa-7-azaspiro[4.4]nonane-7-carboxamide] | < 10 nM | > 1000 nM | > 1000 nM | < 10 nM | < 10 nM | – | < 10 nM | < 100 nM | – | – | – |
| COc1ncc(C2=CCOCC2)c2sc(NC(=O)c3ccc(C(=O)N(C)C)cc3)nc12 [Compound 61, N4-[7-(3,6-dihydro-2H-pyran-4-yl)-4-methoxy-[1,3]thiazolo[4,5-c]pyridin-2-yl]-N1,N1-dimethylbenzene-1,4-dicarboxamide] | < 10 nM | < 1000 nM | > 1000 nM | – | < 10 nM | – | < 10 nM | < 100 nM | – | – | – |
| COc1ncc(C2=CCOCC2)c2sc(NC(=O)N3CCC(N4C(=O)CNC4=O)CC3)nc12 [Compound 131, 4-(2,5-Dioxo-imidazolidin-1-yl)-piperidine-1-carboxylic acid [7-(3,6-dihydro-2H-pyran-4-yl)-4-methoxy-thiazolo[4,5-c]pyridin-2-yl]-amide] | < 10 nM | < 1000 nM | > 1000 nM | < 100 nM | < 10 nM | – | < 10 nM | – | – | – | – |
| COc1ncc(-c2ccccc2)c2sc(NC(=O)N3CCC(N4C(=O)CNC4=O)CC3)nc12 [Compound 137, 4-(2,5-Dioxo-imidazolidin-1-yl)-piperidine-1-carboxylic acid (4-methoxy-7-phenyl-thiazolo[4,5-c]pyridin-2-yl)-amide] | < 10 nM | < 1000 nM | > 1000 nM | < 10 nM | < 10 nM | – | < 10 nM | – | – | – | – |

The remaining lines, values ahead:

| IC50 (human A2B receptor) | IC50 (human A1 receptor) | IC50 (human A3 receptor) | IC50 (mouse Pan T cells [1]; Mus musculus, T-cell) | IC50 (human A2A receptor [2]) | IC50 (human T cells; T-cell) | IC50 (human A2A receptor [3]) | IC50 (mouse Pan T cells [4]; Mus musculus, T-cell) | IC50 (mouse Pan T cells [4]; mouse Pan T cells, CD3/CD28 activated, NECA 1 μM, IL-2 rescue) | IC50 (human T cells) | IC50 (mouse Pan T cells [1]; mouse Pan T cells, agonist NECA 1 uM) | Compound |
| --- | --- | --- | --- | --- | --- | --- | --- | --- | --- | --- | --- |
| < 10 nM | < 1000 nM | > 1000 nM | < 10 nM | < 10 nM | < 10 nM | < 10 nM | < 10 nM | – | – | – | COc1nc(F)c(-c2ccccc2)c2sc(NC(=O)N3CC[C@]4(CCCOC4)C3)nc12 [Compound 12, (R)-7-Oxa-2-aza-spiro[4.5]decane-2-carboxylic acid (6-fluoro-4-methoxy-7-phenyl-thiazolo[4,5-c]pyridin-2-yl)-amide] |
| < 10 nM | > 1000 nM | > 1000 nM | – | – | – | < 10 nM | – | < 100 nM | < 10 nM | – | COc1ncc(C2=CCOCC2)c2sc(NC(=O)N3CCC4(CCCOC4)C3)nc12 (stereo not shown) [Compound 15, 7-Oxa-2-aza-spiro[4.5]decane-2-carboxylic acid [7-(3,6-dihydro-2H-pyran-4-yl)-4-methoxy-thiazolo[4,5-c]pyridin-2-yl]-amide] |
| < 100 nM | < 1000 nM | > 1000 nM | – | < 10 nM | – | < 10 nM | – | – | < 10 nM | < 100 nM | COc1ncc(C2=CCOCC2)c2sc(NC(=O)N3CC[C@]4(CCCOC4)C3)nc12 [Compound 24, (R)-7-Oxa-2-aza-spiro[4.5]decane-2-carboxylic acid [7-(3,6-dihydro-2H-pyran-4-yl)-4-methoxy-thiazolo[4,5-c]pyridin-2-yl]-amide] |
| < 10 nM | > 1000 nM | > 1000 nM | < 100 nM | < 10 nM | – | < 10 nM | < 100 nM | – | – | – | COc1ncc(-c2cccs2)c2sc(NC(=O)N3CCC4(CCOCC4)C3)nc12 [Compound 47, 8-Oxa-2-aza-spiro[4.5]decane-2-carboxylic acid (4-methoxy-7-thiophen-2-yl-thiazolo[4,5-c]pyridin-2-yl)-amide] |
| < 10 nM | > 1000 nM | > 1000 nM | < 10 nM | < 10 nM | – | < 10 nM | < 100 nM | – | – | – | COc1cccc(-c2cnc(OC)c3nc(NC(=O)N4CCC5(CCOCC5)C4)sc23)c1 [Compound 54, 8-Oxa-2-aza-spiro[4.5]decane-2-carboxylic acid [4-methoxy-7-(3-methoxy-phenyl)-thiazolo[4,5-c]pyridin-2-yl]-amide] |

Reference: patent US12344623B2, “Thiazolopyridine derivatives as adenosine receptor antagonists” (Merck Patent GmbH, priority 2019, dated 2025)
